The target in the test is T1, 5-hydroxytryptamine receptor 1A (Rattus norvegicus, UniProt P19327).
T1 sequence (P19327 whole entry): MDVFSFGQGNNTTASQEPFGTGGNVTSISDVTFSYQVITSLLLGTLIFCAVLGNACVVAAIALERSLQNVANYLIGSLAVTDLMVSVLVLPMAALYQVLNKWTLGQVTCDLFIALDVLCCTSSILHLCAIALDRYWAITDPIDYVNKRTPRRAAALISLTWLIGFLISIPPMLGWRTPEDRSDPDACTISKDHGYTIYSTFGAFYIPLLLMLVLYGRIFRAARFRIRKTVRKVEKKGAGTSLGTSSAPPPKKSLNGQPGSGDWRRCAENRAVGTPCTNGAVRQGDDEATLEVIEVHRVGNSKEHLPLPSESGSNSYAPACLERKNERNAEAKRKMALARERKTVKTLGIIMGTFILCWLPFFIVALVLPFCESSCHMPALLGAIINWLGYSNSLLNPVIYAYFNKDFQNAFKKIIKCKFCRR
The test is described as follows: Displacement of [3H]8OH-DPAT from 5HT1A in rat brain cerebral cortex after 15 mins by scintillation counting. (Displacement assays read how much labelled ligand stays bound in the presence of the test substance.)

A value given as a limit tells only on which side of the number the result lay.

For orientation: Ki means a measure of affinity in units of concentration, obtained from inhibition or displacement.

`COc1ccc(Cl)cc1C(=O)NC1C[C@H]2CC[C@H](C1)N2Cc1ccco1` (stereo partly specified) yielded a Ki of over 100 µM.

These data come from BindingDB's records for doi:10.1016/j.ejmech.2011.07.022 (Medical University of Warsaw, 2011).
